Test systems include A498 renal; HCT-116 colon; HOP-92 NSCLC; M14 melanoma; MDA-MB-435; OVCAR-8 ovarian; SK-MEL-5 melanoma; SNB-75 CNS; SW-620 colon; UACC-257 melanoma.
Common to all, as to test: growth of human tumour cells (NCI), 48 h

Eight compounds from PubChem BioAssay (NCI) can be followed below.

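Five concentrations, 48 hours, 96-well plates. GI50 = concentration required for 50% inhibition of growth. TGI denotes the concentration required for complete inhibition of growth.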

As to `O=C(Cc1ccc(/C=C/C(=O)c2ncc[nH]2)cc1)Nc1ccc(Br)cc1`, the GI50 in the assay with A498 renal is 4.72 µM; in the assay with HCT-116 colon, 0.847 µM; in the assay with HOP-92 NSCLC, 6.74 µM; in the assay with M14 melanoma, 3.11 µM; in the assay on MDA-MB-435, 3.7 µM; in the assay with OVCAR-8 ovarian, 4.04 µM. For the same compound, the GI50 is 5.77 µM in the assay with SK-MEL-5 melanoma, 2.37 µM in the assay with SNB-75 CNS, 0.873 µM with SW-620 colon and 6.64 µM with UACC-257 melanoma. In addition, the TGI with A498 renal was 13.7 µM; with HCT-116 colon it was 2.54 µM; in the assay with HOP-92 NSCLC it was more than 16.7 µM; with M14 melanoma, 7.83 µM; in the assay on MDA-MB-435, 15.6 µM; with OVCAR-8 ovarian, more than 16.7 µM. For the same compound, the TGI was more than 16.7 µM in the assay on SK-MEL-5 melanoma, more than 16.7 µM in the assay with SNB-75 CNS, 4.49 µM in the assay with SW-620 colon and more than 16.7 µM in the assay on UACC-257 melanoma.
Consider `N#Cc1cc2cc3c4c(c2oc1=O)CCCN4CCC3`, for which the TGI with A498 renal, in the assay with HCT-116 colon, in the assay on HOP-92 NSCLC, with M14 melanoma, in the assay with MDA-MB-435 and with OVCAR-8 ovarian was more than 100 µM each time. For the same compound, the TGI with SK-MEL-5 melanoma, in the assay on SNB-75 CNS, in the assay with SW-620 colon and in the assay on UACC-257 melanoma was more than 100 µM each time.
Consider `c1ccc(Cn2cc3c(c2)-c2oncc2CC3)cc1`, for which the GI50 in the assay with A498 renal was 3.43 µM; in the assay with HCT-116 colon it was 0.408 µM; in the assay on HOP-92 NSCLC it was 7.64 µM; with M14 melanoma, 0.528 µM; in the assay with MDA-MB-435, 0.311 µM; in the assay on OVCAR-8 ovarian it was 2.79 µM. The GI50 was 0.348 µM in the assay on SK-MEL-5 melanoma, 1.11 µM with SNB-75 CNS, 0.428 µM in the assay with SW-620 colon and 22.7 µM in the assay with UACC-257 melanoma. The TGI was more than 92.1 µM with A498 renal; more than 100 µM in the assay on HCT-116 colon; more than 91.4 µM in the assay on HOP-92 NSCLC; more than 100 µM with M14 melanoma; more than 100 µM in the assay on MDA-MB-435; more than 39.1 µM in the assay on OVCAR-8 ovarian. Moreover, the TGI in the assay on SK-MEL-5 melanoma is 11.8 µM; with SNB-75 CNS, 27 µM; with SW-620 colon it was more than 100 µM; with UACC-257 melanoma, 98.5 µM.
As to `COC(=O)c1[nH]nc(-c2ccccc2)c1N1CCCCC1`, the GI50 in the assay on A498 renal is 17.4 µM; with HOP-92 NSCLC, 19 µM; with M14 melanoma, 57 µM; in the assay on MDA-MB-435 it was 64.7 µM; in the assay on OVCAR-8 ovarian it was 44.2 µM; in the assay with SK-MEL-5 melanoma, 34 µM. For the same compound, the GI50 in the assay on SNB-75 CNS is 30.6 µM; in the assay with SW-620 colon it was 75.6 µM; in the assay with UACC-257 melanoma it was 39.7 µM. For the same compound, the TGI with A498 renal was 57.2 µM; with HOP-92 NSCLC, 64 µM; in the assay with M14 melanoma, more than 100 µM; with MDA-MB-435, more than 100 µM; in the assay with OVCAR-8 ovarian, more than 100 µM; with SK-MEL-5 melanoma, more than 100 µM. Besides, the TGI is 84.7 µM in the assay with SNB-75 CNS, more than 100 µM in the assay on SW-620 colon and more than 100 µM in the assay with UACC-257 melanoma.
Consider `O=C(c1ccc(O)cc1)c1ccc(C(=O)c2ccc(O)cc2)cc1`, for which the GI50 was more than 100 µM with A498 renal; more than 100 µM in the assay with HCT-116 colon; 8.04 µM in the assay with HOP-92 NSCLC; more than 100 µM in the assay with M14 melanoma; more than 100 µM with MDA-MB-435; 20.8 µM in the assay with OVCAR-8 ovarian. Also, the GI50 in the assay on SK-MEL-5 melanoma is more than 100 µM; in the assay with SNB-75 CNS, 22.5 µM; with SW-620 colon it was more than 100 µM; with UACC-257 melanoma, more than 100 µM. Further, the TGI with A498 renal, with HCT-116 colon, in the assay with HOP-92 NSCLC, in the assay on M14 melanoma, with MDA-MB-435 and in the assay on OVCAR-8 ovarian was more than 100 µM in each case. The TGI with SK-MEL-5 melanoma was more than 100 µM; in the assay with SNB-75 CNS, 56.2 µM; in the assay with SW-620 colon it was more than 100 µM; with UACC-257 melanoma, more than 100 µM.
In the case of `Cc1cc(N(CCCNc2ccnc3cc(Cl)ccc23)Cc2cccs2)nc(Cl)n1`, the GI50 in the assay with A498 renal was 2.16 µM; in the assay on HCT-116 colon, 1.08 µM; in the assay with HOP-92 NSCLC, 2.63 µM; in the assay on M14 melanoma, 1.81 µM; with MDA-MB-435, 4 µM; in the assay with OVCAR-8 ovarian, 4.83 µM. The GI50 was 1.45 µM in the assay with SK-MEL-5 melanoma, 2.82 µM in the assay with SNB-75 CNS, 3.45 µM with SW-620 colon and 3.04 µM in the assay on UACC-257 melanoma. For the same compound, the TGI was determined as 11.7 µM in the assay on A498 renal; 12.8 µM in the assay with HCT-116 colon; 20 µM with HOP-92 NSCLC; 4.54 µM with M14 melanoma; 15.8 µM with MDA-MB-435; 34.9 µM with OVCAR-8 ovarian. Besides, the TGI worked out at 3.15 µM with SK-MEL-5 melanoma, 18 µM in the assay on SNB-75 CNS, 18.9 µM in the assay on SW-620 colon and 11.1 µM with UACC-257 melanoma.
For the compound `CN(C)CCCNC(=O)c1cc2c3ccccc3[nH]c2c2ncccc12`, the GI50 with A498 renal is 14.8 µM; in the assay with HCT-116 colon, 9.46 µM; in the assay on HOP-92 NSCLC it was 14.2 µM; with MDA-MB-435, 11.1 µM; in the assay with OVCAR-8 ovarian, 12.6 µM; with SK-MEL-5 melanoma, 13.5 µM. The GI50 is 13 µM in the assay with SNB-75 CNS, 6.34 µM in the assay on SW-620 colon and 15 µM in the assay with UACC-257 melanoma. Further, the TGI in the assay on A498 renal is 31.7 µM; in the assay on HCT-116 colon, 49.2 µM; in the assay with HOP-92 NSCLC it was 57.3 µM; in the assay with MDA-MB-435, 23.4 µM; with OVCAR-8 ovarian, more than 100 µM; in the assay on SK-MEL-5 melanoma it was 26.6 µM. The TGI with SNB-75 CNS was found to be 33.8 µM; in the assay with SW-620 colon, 33.4 µM; in the assay on UACC-257 melanoma, 32.4 µM.
In the case of `CC(=O)OC1CCC2(C)C(CCC3C2CCC2(C)C(C4=CC(=O)OC4)CCC32)C1` (centres undefined), the GI50 in the assay on A498 renal is 1.43 µM; with HCT-116 colon, 7.66 µM; with HOP-92 NSCLC, 2.93 µM; in the assay on M14 melanoma, 5.93 µM; in the assay with MDA-MB-435, 4.2 µM; in the assay on OVCAR-8 ovarian, 4.2 µM. In addition, the results for the GI50 with SK-MEL-5 melanoma, with SNB-75 CNS and with SW-620 colon were 2.37 µM, 11.6 µM and 32 µM, respectively. Besides, the TGI is 3.4 µM with A498 renal; more than 100 µM in the assay on HCT-116 colon; 22.6 µM with HOP-92 NSCLC; more than 100 µM with M14 melanoma; 33.5 µM with MDA-MB-435; 36.7 µM with OVCAR-8 ovarian. In addition, the TGI was 6.58 µM in the assay on SK-MEL-5 melanoma, 30.2 µM in the assay with SNB-75 CNS and more than 100 µM in the assay with SW-620 colon.
